Source: ChEMBL document CHEMBL1201862, “PubChem BioAssay data set” (2004)
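Cells were grown in 96-well plates and exposed to each compound for 48 hours at five concentrations; endpoints were interpolated linearly between bracketing concentrations, or set to the highest concentration if not reached. GI50 marks 50% less growth.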 Active and inactive are the calls of the source. No stated cut-off is given here; in the data, active = GI50 up to about 1.1 µM and inactive = higher.

How the values were obtained:
Assay in all cases: DTP human tumour cell line panel, 48 h
ACHN = tested on: ACHN
HCT-116 = tested on: HCT-116
HCT-15 = tested on: HCT-15
HOP-92 = tested on: HOP-92
HT-29 = tested on: HT-29
MCF7 = tested on: MCF7
MDA-MB-435 = tested on: MDA-MB-435
NCI/ADR-RES = tested on: NCI/ADR-RES
OVCAR-5 = tested on: OVCAR-5
OVCAR-8 = tested on: OVCAR-8
PC-3 = tested on: PC-3
SK-MEL-2 = tested on: SK-MEL-2
SNB-19 = tested on: SNB-19
SR = tested on: SR
T47D = tested on: T47D
TK-10 = tested on: TK-10
U-251 = tested on: U-251
UACC-62 = tested on: UACC-62
SK-MEL-5 = tested on: SK-MEL-5
SK-OV-3 = tested on: SK-OV-3

**Q.** `C[C@H](CCC(=O)O)[C@H]1CC[C@H]2[C@@H]3C(=O)C[C@@H]4C[C@H](O)CC[C@]4(C)[C@H]3C[C@H](O)[C@]12C` was tested. Which GI50 (ACHN) did it give?
**A.** > 100 µM (inactive)

**Q.** What about the GI50 (HCT-116) of the same compound?
**A.** > 100 µM (inactive)

**Q.** What about the GI50 (HCT-15) of the same compound?
**A.** > 100 µM

**Q.** What about the GI50 (HOP-92) of the same compound?
**A.** > 100 µM (inactive)

**Q.** What about the GI50 (HT-29) of the same compound?
**A.** > 100 µM (inactive)

**Q.** And the GI50 (MCF7)?
**A.** > 100 µM (inactive)

**Q.** What about the GI50 (MDA-MB-435) of the same compound?
**A.** > 100 µM (inactive)

**Q.** What about the GI50 (NCI/ADR-RES) of the same compound?
**A.** > 100 µM (inactive)

**Q.** And the GI50 (OVCAR-5)?
**A.** > 100 µM (inactive)

**Q.** And the GI50 (OVCAR-8)?
**A.** > 100 µM (inactive)

**Q.** What about the GI50 (PC-3) of the same compound?
**A.** > 100 µM (inactive)

**Q.** What about the GI50 (SK-MEL-2) of the same compound?
**A.** > 100 µM (inactive)

**Q.** What about the GI50 (SNB-19) of the same compound?
**A.** > 100 µM (inactive)

**Q.** What about the GI50 (SR) of the same compound?
**A.** > 100 µM (inactive)

**Q.** What about the GI50 (T47D) of the same compound?
**A.** > 100 µM (inactive)

**Q.** And the GI50 (TK-10)?
**A.** > 100 µM (inactive)

**Q.** And the GI50 (U-251)?
**A.** > 100 µM (inactive)

**Q.** And the GI50 (UACC-62)?
**A.** > 100 µM (inactive)

**Q.** Which results are given for `COC(=O)/C(=C\c1cn(C(C)=O)c2ccccc12)P(=O)(OC)OC`?
**A.** GI50 (ACHN): 11.8 µM (inactive); GI50 (HCT-116): 13.9 µM (inactive); GI50 (HCT-15): 14.5 µM; GI50 (HOP-92): 16.6 µM (inactive); GI50 (HT-29): 16.1 µM (inactive); GI50 (MCF7): 13.6 µM (inactive); GI50 (MDA-MB-435): 21.2 µM (inactive); GI50 (NCI/ADR-RES): 23.8 µM (inactive); GI50 (OVCAR-8): 22.5 µM (inactive); GI50 (PC-3): 16.2 µM (inactive); GI50 (SK-MEL-5): 13.4 µM (inactive); GI50 (SK-OV-3): 19 µM (inactive); GI50 (SNB-19): 18.1 µM (inactive); GI50 (SR): > 100 µM (inactive); GI50 (T47D): 13.7 µM (inactive); GI50 (TK-10): 20.8 µM (inactive); GI50 (U-251): 15.8 µM (inactive); GI50 (UACC-62): 11.5 µM (inactive)

**Q.** Which results are given for `O=C1c2cccc(NCCNCCO)c2C(=O)c2cccc(NCCNCCO)c21`?
**A.** GI50 (ACHN): 2.55 µM (inactive); GI50 (HCT-116): 0.43 µM (active); GI50 (HCT-15): 5.28 µM; GI50 (HOP-92): 0.507 µM (active); GI50 (HT-29): 0.52 µM (active); GI50 (MCF7): 0.39 µM (active); GI50 (MDA-MB-435): 1.25 µM (inactive); GI50 (NCI/ADR-RES): 10.9 µM (inactive); GI50 (OVCAR-5): 1.53 µM (inactive); GI50 (OVCAR-8): 0.989 µM (active); GI50 (PC-3): 0.733 µM (active); GI50 (SK-MEL-2): 1.28 µM (inactive); GI50 (SK-MEL-5): 1.69 µM (inactive); GI50 (SK-OV-3): 2.26 µM (inactive); GI50 (SNB-19): 0.897 µM (active); GI50 (SR): 0.519 µM (active); GI50 (T47D): 1.69 µM (inactive); GI50 (TK-10): 3.73 µM (inactive); GI50 (U-251): 0.792 µM (active); GI50 (UACC-62): 1.81 µM (inactive)

**Q.** `COc1cc(C2S/C(=C/c3ccccc3)C(=O)N2c2cc(Cl)ccc2Cl)cc(OC)c1OC` (stereo not drawn) was tested. Which GI50 (ACHN) did it give?
**A.** 35.8 µM (inactive)

**Q.** And the GI50 (HCT-116)?
**A.** 12.5 µM (inactive)

**Q.** And the GI50 (HCT-15)?
**A.** 38.3 µM

**Q.** And the GI50 (HOP-92)?
**A.** 51.2 µM (inactive)

**Q.** And the GI50 (HT-29)?
**A.** 47.1 µM (inactive)

**Q.** What about the GI50 (MCF7) of the same compound?
**A.** 27 µM (inactive)

**Q.** What about the GI50 (MDA-MB-435) of the same compound?
**A.** 34.1 µM (inactive)

**Q.** And the GI50 (NCI/ADR-RES)?
**A.** 28.2 µM (inactive)

**Q.** What about the GI50 (OVCAR-8) of the same compound?
**A.** 36.3 µM (inactive)

**Q.** And the GI50 (PC-3)?
**A.** 31.6 µM (inactive)

**Q.** And the GI50 (SK-MEL-2)?
**A.** 38.8 µM (inactive)

**Q.** And the GI50 (SK-MEL-5)?
**A.** 35.8 µM (inactive)

**Q.** What about the GI50 (SK-OV-3) of the same compound?
**A.** > 100 µM (inactive)

**Q.** And the GI50 (SNB-19)?
**A.** 71.9 µM (inactive)

**Q.** And the GI50 (SR)?
**A.** 44.9 µM (inactive)

**Q.** What about the GI50 (T47D) of the same compound?
**A.** 53.7 µM (inactive)

**Q.** And the GI50 (TK-10)?
**A.** > 100 µM (inactive)

**Q.** What about the GI50 (U-251) of the same compound?
**A.** 35.7 µM (inactive)

**Q.** And the GI50 (UACC-62)?
**A.** 31.8 µM (inactive)

**Q.** Which results are given for `CC(=O)OC1c2ccccc2CC2(OC(C)=O)c3ccccc3C12` (stereo not drawn)?
**A.** GI50 (ACHN): > 100 µM (inactive); GI50 (HCT-116): > 100 µM (inactive); GI50 (HCT-15): > 100 µM; GI50 (HOP-92): 91 µM (inactive); GI50 (HT-29): > 100 µM (inactive); GI50 (MCF7): 80.4 µM (inactive); GI50 (MDA-MB-435): > 100 µM (inactive); GI50 (NCI/ADR-RES): > 100 µM (inactive); GI50 (OVCAR-5): > 100 µM (inactive); GI50 (OVCAR-8): > 100 µM (inactive); GI50 (PC-3): > 100 µM (inactive); GI50 (SK-MEL-2): > 100 µM (inactive); GI50 (SK-OV-3): > 100 µM (inactive); GI50 (SNB-19): > 100 µM (inactive); GI50 (SR): > 100 µM (inactive); GI50 (T47D): > 100 µM (inactive); GI50 (TK-10): > 100 µM (inactive); GI50 (U-251): > 100 µM (inactive); GI50 (UACC-62): > 100 µM (inactive)

**Q.** For `Cc1ccc(C)c2c1C/C(=C\c1ccccc1C(=O)O)C2=O`, which GI50 (ACHN) is on record?
**A.** > 100 µM (inactive)

**Q.** And the GI50 (HCT-116)?
**A.** > 100 µM (inactive)

**Q.** And the GI50 (HCT-15)?
**A.** 77.4 µM

**Q.** What about the GI50 (HOP-92) of the same compound?
**A.** > 100 µM (inactive)

**Q.** And the GI50 (HT-29)?
**A.** > 100 µM (inactive)

**Q.** What about the GI50 (MCF7) of the same compound?
**A.** > 100 µM (inactive)

**Q.** And the GI50 (MDA-MB-435)?
**A.** 67.5 µM (inactive)

**Q.** What about the GI50 (NCI/ADR-RES) of the same compound?
**A.** > 100 µM (inactive)

**Q.** What about the GI50 (OVCAR-5) of the same compound?
**A.** > 100 µM (inactive)

**Q.** And the GI50 (OVCAR-8)?
**A.** > 100 µM (inactive)

**Q.** What about the GI50 (PC-3) of the same compound?
**A.** > 100 µM (inactive)

**Q.** And the GI50 (SK-MEL-5)?
**A.** 42.7 µM (inactive)

**Q.** And the GI50 (SNB-19)?
**A.** 81.3 µM (inactive)

**Q.** And the GI50 (SR)?
**A.** 36.1 µM (inactive)

**Q.** And the GI50 (T47D)?
**A.** > 100 µM (inactive)

**Q.** And the GI50 (TK-10)?
**A.** > 100 µM (inactive)

**Q.** What about the GI50 (U-251) of the same compound?
**A.** 88.3 µM (inactive)

**Q.** What about the GI50 (UACC-62) of the same compound?
**A.** > 100 µM (inactive)

**Q.** Which results are given for `COCCOC(=O)C(C)=[N+]=[N-]`?
**A.** GI50 (ACHN): > 100 µM (inactive); GI50 (HCT-116): > 100 µM (inactive); GI50 (HCT-15): > 100 µM; GI50 (HT-29): > 100 µM (inactive); GI50 (MCF7): > 100 µM (inactive); GI50 (MDA-MB-435): > 100 µM (inactive); GI50 (NCI/ADR-RES): > 100 µM (inactive); GI50 (OVCAR-5): > 100 µM (inactive); GI50 (OVCAR-8): > 100 µM (inactive); GI50 (PC-3): > 100 µM (inactive); GI50 (SK-MEL-5): > 100 µM (inactive); GI50 (SNB-19): > 100 µM (inactive); GI50 (SR): 68.1 µM (inactive); GI50 (T47D): > 100 µM (inactive); GI50 (TK-10): > 100 µM (inactive); GI50 (U-251): > 100 µM (inactive); GI50 (UACC-62): > 100 µM (inactive)

**Q.** For `CN(C)c1ccc(/C=C/c2ccnc3ccccc23)cc1`, which GI50 (ACHN) is on record?
**A.** 40.3 µM (inactive)

**Q.** And the GI50 (HCT-116)?
**A.** 39.8 µM (inactive)

**Q.** What about the GI50 (HCT-15) of the same compound?
**A.** 61.1 µM

**Q.** What about the GI50 (HOP-92) of the same compound?
**A.** 93.3 µM (inactive)

**Q.** And the GI50 (HT-29)?
**A.** 25.3 µM (inactive)

**Q.** And the GI50 (MCF7)?
**A.** 90.2 µM (inactive)

**Q.** What about the GI50 (MDA-MB-435) of the same compound?
**A.** 23.1 µM (inactive)

**Q.** And the GI50 (NCI/ADR-RES)?
**A.** 64.3 µM (inactive)

**Q.** What about the GI50 (OVCAR-5) of the same compound?
**A.** > 100 µM (inactive)

**Q.** And the GI50 (PC-3)?
**A.** > 100 µM (inactive)

**Q.** And the GI50 (SK-MEL-2)?
**A.** 58.2 µM (inactive)

**Q.** What about the GI50 (SK-MEL-5) of the same compound?
**A.** 75.9 µM (inactive)

**Q.** What about the GI50 (SK-OV-3) of the same compound?
**A.** 54.5 µM (inactive)

**Q.** And the GI50 (SNB-19)?
**A.** > 100 µM (inactive)

**Q.** What about the GI50 (SR) of the same compound?
**A.** 30.5 µM (inactive)

**Q.** What about the GI50 (T47D) of the same compound?
**A.** 96.8 µM (inactive)

**Q.** What about the GI50 (TK-10) of the same compound?
**A.** 65.8 µM (inactive)

**Q.** And the GI50 (U-251)?
**A.** 84.7 µM (inactive)

**Q.** And the GI50 (UACC-62)?
**A.** 43.1 µM (inactive)
